Experimental data published in patent US20210212984A1, “FORMULATION FOR PAIN MANAGEMENT” (Zyus Life Sciences Inc., priority 2019, published 2021).
Several values for one entry are separate records, joined by “and”; a condition that tells them apart may be missing. Equal entries are not always repeated. Where two headings read alike, the source gives them in different places.

How the values were obtained:
human TRPA1 channel = target: T1, human TRPA1 channel (Homo sapiens, UniProt O75762); assay: ScreenPatch assay (IonWorks Barracuda), agonist mode, TRPA1 expressed in CHO cells; assay type: cell-based; conditions: for EC50: read-out: EC50, CBC CRC
T1 construct: expressed in transfected cells; host or cells: CHO cells
T1 sequence (O75762 whole entry): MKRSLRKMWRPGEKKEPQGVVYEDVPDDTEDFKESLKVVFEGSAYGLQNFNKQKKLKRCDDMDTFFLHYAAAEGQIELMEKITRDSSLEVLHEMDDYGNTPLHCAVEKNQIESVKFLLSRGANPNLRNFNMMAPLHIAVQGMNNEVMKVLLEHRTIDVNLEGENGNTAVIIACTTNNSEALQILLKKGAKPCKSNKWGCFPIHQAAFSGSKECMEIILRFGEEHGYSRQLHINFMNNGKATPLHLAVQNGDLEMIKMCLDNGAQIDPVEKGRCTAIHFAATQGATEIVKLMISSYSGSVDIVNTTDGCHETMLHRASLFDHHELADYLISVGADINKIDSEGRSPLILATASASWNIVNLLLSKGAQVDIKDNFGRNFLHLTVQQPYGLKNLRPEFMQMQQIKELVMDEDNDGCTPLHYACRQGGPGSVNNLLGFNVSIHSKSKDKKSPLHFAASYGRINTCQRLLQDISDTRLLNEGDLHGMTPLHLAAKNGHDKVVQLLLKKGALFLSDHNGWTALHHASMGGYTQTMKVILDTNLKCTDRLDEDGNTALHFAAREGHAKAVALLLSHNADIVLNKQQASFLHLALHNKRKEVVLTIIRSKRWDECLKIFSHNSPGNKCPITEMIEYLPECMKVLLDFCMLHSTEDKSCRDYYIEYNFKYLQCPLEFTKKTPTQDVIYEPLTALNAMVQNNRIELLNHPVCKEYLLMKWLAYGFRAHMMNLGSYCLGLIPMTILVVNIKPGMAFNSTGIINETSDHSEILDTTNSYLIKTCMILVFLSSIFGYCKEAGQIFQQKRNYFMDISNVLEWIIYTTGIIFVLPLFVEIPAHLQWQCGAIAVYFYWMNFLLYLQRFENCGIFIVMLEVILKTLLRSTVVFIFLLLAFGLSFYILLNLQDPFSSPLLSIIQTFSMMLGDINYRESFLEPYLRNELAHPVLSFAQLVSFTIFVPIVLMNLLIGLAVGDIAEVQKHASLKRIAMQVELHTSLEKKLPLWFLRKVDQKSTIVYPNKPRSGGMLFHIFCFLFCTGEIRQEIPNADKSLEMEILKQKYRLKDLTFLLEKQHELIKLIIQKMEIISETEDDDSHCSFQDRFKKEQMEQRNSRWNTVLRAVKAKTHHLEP
Procedure: Formulations for pain management were tested for effects on the human TRPA1 channel, expressed in mammalian cells using the ScreenPatch® assay (IonWorks™ Barracuda Based Assay): agonist mode. The data presented confirming a synergistic effect of cannabinoids (CBD:THC:CBC) at the ion channel level.
Test Articles. The test articles, also referenced herein as test formulations, were evaluated in an 8-point concentration-response format (4 replicate wells/concentration, Table 4A & Table 4B). The test articles were dissolved and initially serially diluted in dimethyl sulfoxide (DMSO). The final dilution was made in extracellular solution. The final DMSO concentration was 0.6% (v/v).
Positive Control Treatment Groups. Stock solutions of positive control articles were prepared in batches, aliquoted for individual use. The positive control test solutions were prepared fresh on the day of experiment. The final DMSO concentration was 0.6% (v/v). […] Reference antagonist, ruthenium red (0-10 μM), was used for both TRPA1.
Test System: TRPA1 ionotropic receptors expressed in CHO cells.
Test Platform: Ionworks Barracuda™
Electrophysiological Procedures. Intracellular solution (mM): 50 mM CsCl, 90 mM CsF, 2 mM MgCl2, 5 mM EGTA, 10 mM HEPES. Adjusted to pH 7.2 with CsOH. This solution was prepared in batches and stored at room temperature. In preparation for a recording session, the intracellular solution was loaded into the intracellular compartment of the PPC planar electrode.
Extracellular solution, HB-PS (composition in mM): NaCl, 137; KCl, 1.0; MgCl2, 2; CaCl2, 2; HEPES, 10; Glucose, 10; pH adjusted to 7.4 with NaOH (refrigerated until use). Holding potential: −70 mV, potential during agonist/antagonist application: −70 mV.
Recording procedure. Extracellular buffer was loaded into the PPC plate wells (11 μL per well). Cell suspension was pipetted into the wells (9 μL per well) of the PPC planar electrode.
Whole-cell recording configuration was established via patch perforation with membrane currents recorded by on-board patch clamp amplifiers.
Single application (scan) protocol was used.
Test Article Administration. The application consisted of the addition of 20 μL of 2× concentrated test article solution at 10 μL/s (2 second total application time).
TRPA1 Positive Control—Agonist.
Positive Control—Antagonist. 0-10 μM Ruthenium Red (8 concentrations, 4 replicates, half log scale).

CB1 receptors = CB1 receptors (Homo sapiens, UniProt P21554); conditions: Shinjyo N 2013; cited from earlier work
Sequence of CB1 receptors (P21554 whole entry): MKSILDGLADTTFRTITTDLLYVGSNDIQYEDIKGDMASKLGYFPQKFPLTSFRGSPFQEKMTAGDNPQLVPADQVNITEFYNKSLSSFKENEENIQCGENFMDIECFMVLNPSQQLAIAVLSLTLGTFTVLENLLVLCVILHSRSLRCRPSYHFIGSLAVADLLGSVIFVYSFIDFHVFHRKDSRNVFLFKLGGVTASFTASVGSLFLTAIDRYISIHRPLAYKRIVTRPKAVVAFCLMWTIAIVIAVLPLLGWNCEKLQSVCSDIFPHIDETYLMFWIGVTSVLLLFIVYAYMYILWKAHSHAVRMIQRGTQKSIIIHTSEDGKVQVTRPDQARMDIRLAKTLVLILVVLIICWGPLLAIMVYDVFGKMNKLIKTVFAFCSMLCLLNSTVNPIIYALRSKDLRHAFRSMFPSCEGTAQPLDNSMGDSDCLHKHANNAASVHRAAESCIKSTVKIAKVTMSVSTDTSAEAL

CB2 receptors = CB2 receptors (Homo sapiens, UniProt P34972); conditions: Shinjyo N 2013; cited from earlier work
Sequence of CB2 receptors (P34972 whole entry): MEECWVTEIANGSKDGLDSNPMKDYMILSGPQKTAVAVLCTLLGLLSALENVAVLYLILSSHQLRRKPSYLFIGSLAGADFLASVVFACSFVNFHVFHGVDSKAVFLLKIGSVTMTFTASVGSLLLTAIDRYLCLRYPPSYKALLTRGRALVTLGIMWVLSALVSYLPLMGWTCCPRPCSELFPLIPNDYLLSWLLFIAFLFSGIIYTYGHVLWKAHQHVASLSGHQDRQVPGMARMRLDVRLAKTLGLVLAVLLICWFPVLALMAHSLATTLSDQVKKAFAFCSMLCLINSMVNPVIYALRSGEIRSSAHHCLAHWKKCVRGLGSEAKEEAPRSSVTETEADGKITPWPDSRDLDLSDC

[1] = CHO, CRC of the article alone, % of 3000 μM Mustard Oil, read-out: EMAX
[2] = CRC of the article alone, % of 3000 μM Mustard Oil
[3] = in presence of 0.1 μM CBD + THC
[4] = in presence of 0.3 μM CBD + THC

CCCCCc1cc(O)c2c(c1)OC(C)(CCC=C(C)C)C=C2 (stereo not shown) [CBC, cannabichromene]
Agonist activity at TRPA1 receptors (in words) (human TRPA1 channel): weak partial agonist activity | Emax (human TRPA1 channel; [1]): ~10% | Emax (human TRPA1 channel; CHO, at near threshold activation by CBD+THC mixture (1 μM each), n=4, read-out: Efficacy (EMAX) of CBC): 16.2 ± 1.3% | Emax (human TRPA1 channel; CHO, in presence of 0.1 μM CBD + THC, % of 3000 μM Mustard Oil, read-out: EMAX, CBC CRC): 10.1% | Emax (human TRPA1 channel; CHO, in presence of 0.3 μM CBD + THC, % of 3000 μM Mustard Oil, read-out: EMAX, CBC CRC): 13.1% | Emax (human TRPA1 channel; CHO, in presence of 1 μM CBD + THC, % of 3000 μM Mustard Oil, read-out: EMAX, CBC CRC): 17.1% | Emax (human TRPA1 channel; CHO, in presence of 3 μM CBD + THC, % of 3000 μM Mustard Oil, read-out: EMAX, CBC CRC): 30.7% | Emax (human TRPA1 channel; CHO, in presence of 10 μM CBD + THC, % of 3000 μM Mustard Oil, read-out: EMAX, CBC CRC): 53.2% | Emax (human TRPA1 channel; CHO, in presence of 30 μM CBD + THC, % of 3000 μM Mustard Oil, read-out: EMAX, CBC CRC): 60.8% | Emax (human TRPA1 channel; CHO, in presence of 100 μM CBD + THC, % of 3000 μM Mustard Oil, read-out: EMAX, CBC CRC): 58.5% | Emax (human TRPA1 channel; CHO, in presence of 300 μM CBD + THC, % of 3000 μM Mustard Oil, read-out: EMAX, CBC CRC): 37.2% | Hill Slope (human TRPA1 channel; CRC of the article alone): −0.96 | EMIN (human TRPA1 channel; [2]): 0.86% | Emax (human TRPA1 channel; [2]): 10.3±1.9% and 10.31% | Efficacy (EMAX) of CBC (human TRPA1 channel; at near threshold activation by CBD+THC mixture (1 μM each), n=4): 16±1% | Hill Slope, CBC CRC (human TRPA1 channel; [3]): −3.56 | EMIN, CBC CRC (human TRPA1 channel; in presence of 0.1 μM CBD + THC, % of 3000 μM Mustard Oil): 0.92% | EC50 (human TRPA1 channel; [3]): 54.5 µM | Hill Slope, CBC CRC (human TRPA1 channel; [4]): −1.00 | EMIN, CBC CRC (human TRPA1 channel; in presence of 0.3 μM CBD + THC, % of 3000 μM Mustard Oil): 1.42% | EC50 (human TRPA1 channel; [4]): 64.1 µM | Hill Slope, CBC CRC (human TRPA1 channel; in presence of 1 μM CBD + THC): −1.00 | EMIN, CBC CRC (human TRPA1 channel; in presence of 1 μM CBD + THC, % of 3000 μM Mustard Oil): 2.40% | EC50 (human TRPA1 channel; in presence of 1 μM CBD + THC): 26 µM | EMIN, CBC CRC (human TRPA1 channel; in presence of 3 μM CBD + THC, % of 3000 μM Mustard Oil): 15.03% | EMIN, CBC CRC (human TRPA1 channel; in presence of 10 μM CBD + THC, % of 3000 μM Mustard Oil): 42.93% | EMIN, CBC CRC (human TRPA1 channel; in presence of 30 μM CBD + THC, % of 3000 μM Mustard Oil): 47.70% | EMIN, CBC CRC (human TRPA1 channel; in presence of 100 μM CBD + THC, % of 3000 μM Mustard Oil): 37.89% | EMIN, CBC CRC (human TRPA1 channel; in presence of 300 μM CBD + THC, % of 3000 μM Mustard Oil): 29.27% | concentrations at which it binds to CB1 receptors (CB1 receptors): higher than 1 micromolar | Ki (CB2 receptors): ~0.1 µM

CO [Methanol]
Emax (human TRPA1 channel; [1]): 3.97% | EMIN (human TRPA1 channel; [2]): 0.95%

C=CCN=C=S [Mustard Oil, Allyl isothiocyanate, reference compound]
Emax at 3000 µM (human TRPA1 channel; CHO, CRC of the article alone, % of 3000 μM Mustard Oil): 100% | Hill Slope (human TRPA1 channel; CRC of the article alone): −1.91 | EMIN (human TRPA1 channel; [2]): 1.01%

N.N.N.N.N.N.N.N.N.N.N.N.N.N.[Cl-].[Cl-].[Cl-].[Cl-].[Cl-].[Cl-].[O-2].[O-2].[Ru+3].[Ru+3].[Ru+4] [Ruthenium Red, reference compound]
Hill Slope (human TRPA1 channel; CRC of the article alone): 0.85 | EMIN (human TRPA1 channel; [2]): 0.00% | Emax (human TRPA1 channel; [2]): 47.50% | IC50 (human TRPA1 channel; inhibition of TRPA1 receptors, CRC 0-10 μM (footnote: IC50 is shown)): 1.79 µM
